Results as given in patent publication US20080089844A1 (priority 2002, published 2008).
Entries after “also recorded” stand apart in the source; their conditions may differ. Where two headings read alike, the source gives them in different places.

Columns and labels:
[1] = system: primary cultures of myocytes; assay type: cell-based, rat
[2] = system: cardiac ventricular myocytes; assay type: cell-based, rat
[3] = system: ventricular myocyte, cortex and trachea primary cultures; assay type: cell-based, rat
Shaker potassium channel = Shaker potassium channel (Drosophila melanogaster, UniProt P08510); details: cited from earlier work
[4] = rat, in vivo, iv
Kv1.1 = Kv1.1 (Homo sapiens, UniProt Q09470); details: cited from earlier work
[5] = system: New Zealand White rabbits; details: rabbit, in vivo
Kv1.3 = Kv1.3 (Homo sapiens, UniProt P22001); details: cited from earlier work
Kv1.4 = Kv1.4 (Homo sapiens, UniProt P22459); details: cited from earlier work
Kv2.1 = Kv2.1 (Homo sapiens, UniProt Q14721); details: cited from earlier work
Kv3.4 = Kv3.4 (Homo sapiens, UniProt Q03721); details: cited from earlier work
Kv4.2 = Kv4.2 (Homo sapiens, UniProt Q9NZV8); details: cited from earlier work
eag = eag (Homo sapiens, UniProt O95259); details: cited from earlier work
Nav1.2 = Nav1.2 (Homo sapiens, UniProt Q99250); details: cited from earlier work
Nav1.5 = Nav1.5 (Homo sapiens, UniProt Q14524); details: cited from earlier work
F425G Shaker mutation = F425G Shaker mutation (Drosophila melanogaster, UniProt P08510, F425G); details: cited from earlier work
[6] = system: trout Shaker homolog (Sha1); details: cited from earlier work
herg = herg (Homo sapiens, UniProt Q12809); details: cited from earlier work
herg, sequence (Q12809 whole entry, looked up): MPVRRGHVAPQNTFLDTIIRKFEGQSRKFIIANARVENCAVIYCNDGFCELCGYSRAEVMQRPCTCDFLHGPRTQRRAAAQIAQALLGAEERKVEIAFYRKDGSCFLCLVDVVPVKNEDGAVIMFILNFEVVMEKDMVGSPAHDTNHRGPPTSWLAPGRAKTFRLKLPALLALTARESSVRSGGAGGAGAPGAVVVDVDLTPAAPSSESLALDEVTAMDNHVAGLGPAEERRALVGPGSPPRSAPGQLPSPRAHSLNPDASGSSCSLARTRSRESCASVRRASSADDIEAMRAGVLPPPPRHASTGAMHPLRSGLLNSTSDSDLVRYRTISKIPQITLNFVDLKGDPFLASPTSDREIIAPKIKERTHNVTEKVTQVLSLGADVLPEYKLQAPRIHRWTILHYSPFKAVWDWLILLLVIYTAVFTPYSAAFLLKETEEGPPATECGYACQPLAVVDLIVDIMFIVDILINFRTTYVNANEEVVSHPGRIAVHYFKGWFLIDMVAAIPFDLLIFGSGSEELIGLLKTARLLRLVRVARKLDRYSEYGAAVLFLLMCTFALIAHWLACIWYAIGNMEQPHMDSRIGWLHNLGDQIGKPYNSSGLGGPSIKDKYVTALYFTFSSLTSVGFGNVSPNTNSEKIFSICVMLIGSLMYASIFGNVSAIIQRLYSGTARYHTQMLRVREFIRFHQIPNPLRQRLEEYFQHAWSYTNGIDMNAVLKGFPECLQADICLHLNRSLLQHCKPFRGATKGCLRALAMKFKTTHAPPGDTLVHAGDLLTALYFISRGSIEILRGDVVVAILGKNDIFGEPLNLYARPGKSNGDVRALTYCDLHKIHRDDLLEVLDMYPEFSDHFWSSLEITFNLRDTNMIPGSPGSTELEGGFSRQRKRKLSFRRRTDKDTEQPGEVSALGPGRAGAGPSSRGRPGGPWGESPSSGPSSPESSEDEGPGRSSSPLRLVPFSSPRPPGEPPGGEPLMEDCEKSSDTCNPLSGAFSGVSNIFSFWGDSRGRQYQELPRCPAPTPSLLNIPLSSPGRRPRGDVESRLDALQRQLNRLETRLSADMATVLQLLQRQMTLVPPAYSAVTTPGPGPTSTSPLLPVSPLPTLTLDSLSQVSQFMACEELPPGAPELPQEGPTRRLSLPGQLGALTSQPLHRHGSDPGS

Shaker potassium channel, sequence (P08510 whole entry, looked up): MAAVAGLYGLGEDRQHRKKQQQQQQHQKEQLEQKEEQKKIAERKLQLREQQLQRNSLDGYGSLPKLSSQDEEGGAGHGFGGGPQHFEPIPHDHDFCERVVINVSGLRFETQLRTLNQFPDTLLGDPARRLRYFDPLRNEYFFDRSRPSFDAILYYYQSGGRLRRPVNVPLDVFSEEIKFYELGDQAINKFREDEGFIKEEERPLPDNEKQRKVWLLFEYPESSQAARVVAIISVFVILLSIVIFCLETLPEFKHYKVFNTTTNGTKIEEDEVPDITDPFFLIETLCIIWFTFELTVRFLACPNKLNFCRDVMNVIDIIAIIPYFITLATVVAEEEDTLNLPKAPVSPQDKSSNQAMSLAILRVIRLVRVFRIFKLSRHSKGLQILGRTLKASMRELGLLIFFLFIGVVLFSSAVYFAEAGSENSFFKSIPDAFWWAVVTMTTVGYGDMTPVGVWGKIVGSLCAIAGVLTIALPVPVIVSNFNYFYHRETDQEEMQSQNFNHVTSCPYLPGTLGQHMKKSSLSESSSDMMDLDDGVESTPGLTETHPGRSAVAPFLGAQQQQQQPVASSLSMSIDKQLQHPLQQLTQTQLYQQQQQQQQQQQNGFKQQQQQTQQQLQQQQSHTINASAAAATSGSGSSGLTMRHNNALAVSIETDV
Kv4.2, sequence (Q9NZV8 whole entry, looked up): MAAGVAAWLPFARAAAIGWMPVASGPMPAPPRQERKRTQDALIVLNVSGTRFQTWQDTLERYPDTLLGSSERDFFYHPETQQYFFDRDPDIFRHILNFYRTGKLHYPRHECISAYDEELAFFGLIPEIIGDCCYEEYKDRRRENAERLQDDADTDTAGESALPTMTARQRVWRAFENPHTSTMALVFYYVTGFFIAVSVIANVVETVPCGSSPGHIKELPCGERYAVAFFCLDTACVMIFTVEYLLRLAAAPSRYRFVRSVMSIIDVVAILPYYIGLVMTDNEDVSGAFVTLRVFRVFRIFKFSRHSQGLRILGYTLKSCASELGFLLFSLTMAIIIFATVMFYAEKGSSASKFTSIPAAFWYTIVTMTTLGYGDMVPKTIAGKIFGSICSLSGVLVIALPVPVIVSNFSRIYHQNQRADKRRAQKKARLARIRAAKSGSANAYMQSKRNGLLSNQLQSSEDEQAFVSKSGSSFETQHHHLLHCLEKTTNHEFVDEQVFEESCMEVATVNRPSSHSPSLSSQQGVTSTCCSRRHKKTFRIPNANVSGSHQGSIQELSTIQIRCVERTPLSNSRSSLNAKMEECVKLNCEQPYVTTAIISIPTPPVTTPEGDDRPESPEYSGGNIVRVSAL
Kv1.1, sequence (Q09470 whole entry, looked up): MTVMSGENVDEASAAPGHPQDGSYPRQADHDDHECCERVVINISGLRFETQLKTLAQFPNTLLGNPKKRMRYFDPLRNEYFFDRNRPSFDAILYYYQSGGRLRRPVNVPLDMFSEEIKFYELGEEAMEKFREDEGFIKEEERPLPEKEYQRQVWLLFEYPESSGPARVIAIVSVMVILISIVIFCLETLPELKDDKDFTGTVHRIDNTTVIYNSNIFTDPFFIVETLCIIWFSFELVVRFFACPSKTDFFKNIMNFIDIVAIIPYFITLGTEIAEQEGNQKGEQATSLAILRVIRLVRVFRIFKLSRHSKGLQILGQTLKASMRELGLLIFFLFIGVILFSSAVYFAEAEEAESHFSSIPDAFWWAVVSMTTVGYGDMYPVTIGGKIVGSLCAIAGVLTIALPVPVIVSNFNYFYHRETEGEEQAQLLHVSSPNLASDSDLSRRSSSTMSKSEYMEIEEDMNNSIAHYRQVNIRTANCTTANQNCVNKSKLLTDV
Kv1.3, sequence (P22001 whole entry, looked up): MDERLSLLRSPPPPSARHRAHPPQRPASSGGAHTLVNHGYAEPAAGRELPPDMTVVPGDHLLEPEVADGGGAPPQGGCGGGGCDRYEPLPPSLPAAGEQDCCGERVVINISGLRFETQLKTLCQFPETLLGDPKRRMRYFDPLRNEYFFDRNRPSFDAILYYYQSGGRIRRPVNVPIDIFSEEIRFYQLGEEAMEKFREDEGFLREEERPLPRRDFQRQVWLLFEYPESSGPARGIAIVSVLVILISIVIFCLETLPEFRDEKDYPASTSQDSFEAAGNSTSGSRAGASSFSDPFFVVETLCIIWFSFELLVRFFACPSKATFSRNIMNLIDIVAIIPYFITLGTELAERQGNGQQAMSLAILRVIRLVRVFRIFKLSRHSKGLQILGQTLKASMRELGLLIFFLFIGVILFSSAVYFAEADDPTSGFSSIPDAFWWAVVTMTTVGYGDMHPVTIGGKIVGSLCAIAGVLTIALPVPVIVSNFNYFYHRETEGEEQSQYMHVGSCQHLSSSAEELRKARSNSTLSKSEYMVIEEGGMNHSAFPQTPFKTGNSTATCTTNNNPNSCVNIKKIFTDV
Kv3.4, sequence (Q03721 whole entry, looked up): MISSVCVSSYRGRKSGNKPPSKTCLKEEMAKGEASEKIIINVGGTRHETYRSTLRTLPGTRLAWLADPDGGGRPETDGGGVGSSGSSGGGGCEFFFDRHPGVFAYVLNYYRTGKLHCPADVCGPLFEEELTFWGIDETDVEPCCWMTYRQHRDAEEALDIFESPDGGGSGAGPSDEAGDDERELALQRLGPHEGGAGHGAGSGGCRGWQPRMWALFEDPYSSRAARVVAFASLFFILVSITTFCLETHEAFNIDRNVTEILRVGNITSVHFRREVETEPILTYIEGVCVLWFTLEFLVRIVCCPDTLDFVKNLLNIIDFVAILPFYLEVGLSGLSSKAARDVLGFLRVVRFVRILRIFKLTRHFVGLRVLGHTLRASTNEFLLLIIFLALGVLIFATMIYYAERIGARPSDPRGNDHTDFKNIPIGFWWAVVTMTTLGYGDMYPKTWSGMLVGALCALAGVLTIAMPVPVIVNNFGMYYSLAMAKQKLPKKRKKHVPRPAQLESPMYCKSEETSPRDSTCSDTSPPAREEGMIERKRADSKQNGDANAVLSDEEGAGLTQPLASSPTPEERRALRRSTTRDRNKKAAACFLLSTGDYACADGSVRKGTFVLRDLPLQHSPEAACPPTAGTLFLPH
Kv2.1, sequence (Q14721 whole entry, looked up): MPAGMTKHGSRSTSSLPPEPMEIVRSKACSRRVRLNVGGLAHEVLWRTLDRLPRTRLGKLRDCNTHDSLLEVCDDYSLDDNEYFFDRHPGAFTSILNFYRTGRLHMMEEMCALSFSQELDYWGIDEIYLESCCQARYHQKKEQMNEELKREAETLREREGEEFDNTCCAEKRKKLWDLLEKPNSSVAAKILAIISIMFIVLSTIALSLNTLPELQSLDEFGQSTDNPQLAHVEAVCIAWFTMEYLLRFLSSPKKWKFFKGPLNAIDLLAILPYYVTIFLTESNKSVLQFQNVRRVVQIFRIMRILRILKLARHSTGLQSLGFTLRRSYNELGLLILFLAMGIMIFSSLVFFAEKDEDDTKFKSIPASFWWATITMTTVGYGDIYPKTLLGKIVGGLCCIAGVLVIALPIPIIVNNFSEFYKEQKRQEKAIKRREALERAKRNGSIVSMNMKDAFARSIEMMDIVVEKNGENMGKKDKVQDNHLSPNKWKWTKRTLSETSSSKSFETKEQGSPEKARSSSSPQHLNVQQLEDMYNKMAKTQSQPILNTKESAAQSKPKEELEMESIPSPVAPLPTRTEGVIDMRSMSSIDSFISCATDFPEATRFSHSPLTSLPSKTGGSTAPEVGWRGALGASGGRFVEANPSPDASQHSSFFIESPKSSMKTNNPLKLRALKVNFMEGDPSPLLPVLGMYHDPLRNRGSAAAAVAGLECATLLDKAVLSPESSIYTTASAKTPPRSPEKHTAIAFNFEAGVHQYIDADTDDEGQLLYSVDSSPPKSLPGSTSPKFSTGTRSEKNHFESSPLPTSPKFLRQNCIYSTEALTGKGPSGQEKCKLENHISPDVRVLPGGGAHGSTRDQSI
F425G Shaker mutation, sequence (P08510 whole entry F425G, looked up): as the sequence (P08510 whole entry, looked up) above, with F425G counted along it

## Leu-X2-Ser-Cys-Cys-Ser-Leu-Asn-Leu-X1-Leu-Cys-X2-Val-X2-Ala-Cys-X3-X1-Asn-X2-Cys-Cys-Thr [κM-RIIIK]
[1]
  induction of glibenclamide-sensitive currents: induces glibenclamide-sensitive currents in primary cultures of myocytes in a highly potent manner
[2]
  protection against hypoxia-induced depolarization: prevents any hypoxia-induced changes in membrane potential; also recorded: strong protective effect; also recorded: confers protection against hypoxia-induced depolarization
[3]
  protection against hypoxia-induced changes in intracellular calcium: able to provide protection against hypoxia
Isolated rabbit hearts
  infarct size: reduces the infarct size
Shaker potassium channel
  state dependence of inhibition, open vs closed state affinity: three to four times lower affinity for the open state
Shaker potassium channel; read-out: IC50, antagonist of the Shaker potassium channel
  IC50: ~1200 nM
[4]
  effect on blood pressure: no effect
  effect on heart rate: no effect
Kv1.1
  activity on Kv1.1: no detectable activity
[5]
  infarct size: reduces the infarct size
[5]; iv
  hemodynamic effect: without any hemodynamic effect
Kv1.3
  activity on Kv1.3: no detectable activity
Kv1.4
  activity on Kv1.4: no detectable activity
Kv2.1
  activity on Kv2.1: no detectable activity
Kv3.4
  activity on Kv3.4: no detectable activity
Kv4.2
  activity on Kv4.2: no detectable activity
eag
  activity on eag: no detectable activity
Nav1.2
  activity on Nav1.2: no detectable activity
Nav1.5
  activity on Nav1.5: no detectable activity
F425G Shaker mutation
  effect of F425G Shaker mutation on κM-RIIIK sensitivity: decreases κM-RIIIK sensitivity
[6]
  state dependence of inhibition, open vs closed state affinity: three to four times lower affinity for the open state
[6]; read-out: IC50 on Sha1, closed state
  IC50: 20 nM
[6]; read-out: IC50 on Sha1, open state
  IC50: 60 nM
herg
  activity on herg: no detectable activity
